Tests used:
[1] = target: T1, Cytochrome P450 2A6 (Homo sapiens, UniProt P11509); assay: Clinically relevant inhibitors of human liver microsomal P450 enzymes, isoform CYP2A6; format: ADME; settings: microsomes
T1 sequence (P11509 whole entry): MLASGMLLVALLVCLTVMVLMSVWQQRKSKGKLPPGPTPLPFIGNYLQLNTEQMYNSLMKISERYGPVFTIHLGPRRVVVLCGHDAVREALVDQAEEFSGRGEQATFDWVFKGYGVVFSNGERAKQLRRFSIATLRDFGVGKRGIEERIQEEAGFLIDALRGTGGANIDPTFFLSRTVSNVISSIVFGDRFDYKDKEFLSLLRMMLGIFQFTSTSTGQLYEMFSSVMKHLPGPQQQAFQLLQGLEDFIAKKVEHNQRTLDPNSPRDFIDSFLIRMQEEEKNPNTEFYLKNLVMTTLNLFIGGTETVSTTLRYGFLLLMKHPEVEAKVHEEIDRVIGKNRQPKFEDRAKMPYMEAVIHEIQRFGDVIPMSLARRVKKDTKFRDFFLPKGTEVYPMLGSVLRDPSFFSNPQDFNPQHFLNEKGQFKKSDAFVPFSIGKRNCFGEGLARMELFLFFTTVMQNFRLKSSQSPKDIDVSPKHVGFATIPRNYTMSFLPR

[2] = target: Sulfotransferase 1A1 (Homo sapiens, UniProt P50225); assay: Major substrate of human cytosolic sulfotransferase SULT1A1; format: ADME
[3] = target: T2, Sulfotransferase 4A1 (Homo sapiens, UniProt Q9BR01); assay: Major substrate of human cytosolic sulfotransferase SULT4A1_v1; format: ADME
T2 sequence (Q9BR01 whole entry): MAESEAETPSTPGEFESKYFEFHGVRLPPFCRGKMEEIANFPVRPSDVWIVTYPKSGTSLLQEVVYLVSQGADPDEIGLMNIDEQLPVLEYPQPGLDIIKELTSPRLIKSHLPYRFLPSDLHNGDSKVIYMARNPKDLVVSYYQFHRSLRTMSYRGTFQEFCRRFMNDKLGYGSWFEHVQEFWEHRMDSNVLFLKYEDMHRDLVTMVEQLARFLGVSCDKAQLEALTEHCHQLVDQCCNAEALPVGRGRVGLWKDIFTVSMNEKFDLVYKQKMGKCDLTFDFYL

[4] = target: Sulfotransferase 1A2 (Homo sapiens, UniProt P50226); assay: Major substrate of human cytosolic sulfotransferase SULT1A2; format: ADME
[5] = target: T3, Glutathione S-transferase A2 (Homo sapiens, UniProt P09210); assay: Substrates for human cytosolic glutathione transferase GSTA2; format: ADME
T3 sequence (P09210 whole entry): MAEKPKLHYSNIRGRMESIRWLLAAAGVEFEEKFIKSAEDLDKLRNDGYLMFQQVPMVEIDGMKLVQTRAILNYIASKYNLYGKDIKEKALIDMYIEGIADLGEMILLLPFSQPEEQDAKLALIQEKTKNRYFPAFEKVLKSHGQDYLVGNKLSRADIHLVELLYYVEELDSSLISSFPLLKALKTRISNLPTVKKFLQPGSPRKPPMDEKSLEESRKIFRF

[6] = target: T4, Microsomal glutathione S-transferase 1 (Homo sapiens, UniProt P10620); assay: Substrates for human microsomal glutathione transferase MGST1; format: ADME
T4 sequence (P10620 whole entry): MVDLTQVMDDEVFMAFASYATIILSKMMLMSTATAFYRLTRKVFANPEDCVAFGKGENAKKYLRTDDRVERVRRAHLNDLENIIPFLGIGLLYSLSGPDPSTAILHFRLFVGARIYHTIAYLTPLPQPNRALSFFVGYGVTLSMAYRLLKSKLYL

[7] = target: T5, Nuclear receptor subfamily 1 group I member 3 (Mus musculus, UniProt O35627); assay: Constitutive androstane receptor agonist
T5 sequence (O35627 whole entry): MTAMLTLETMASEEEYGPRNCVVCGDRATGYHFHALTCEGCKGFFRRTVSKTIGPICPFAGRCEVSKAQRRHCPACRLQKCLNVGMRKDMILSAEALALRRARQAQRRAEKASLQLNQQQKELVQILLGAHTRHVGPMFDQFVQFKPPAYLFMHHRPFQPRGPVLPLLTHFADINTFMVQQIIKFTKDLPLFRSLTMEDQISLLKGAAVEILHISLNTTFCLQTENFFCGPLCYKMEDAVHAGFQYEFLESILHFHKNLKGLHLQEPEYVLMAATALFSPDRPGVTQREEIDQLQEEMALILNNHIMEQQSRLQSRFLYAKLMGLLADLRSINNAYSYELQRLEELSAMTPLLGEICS

[8] = target: Glutathione S-transferase A3 (Homo sapiens, UniProt Q16772); assay: Substrates for human cytosolic glutathione transferase GSTA3; format: ADME
[9] = target: T6, Glutathione S-transferase A1 (Homo sapiens, UniProt P08263); assay: Substrates for human cytosolic glutathione transferase GSTA1; format: ADME
T6 sequence (P08263 whole entry): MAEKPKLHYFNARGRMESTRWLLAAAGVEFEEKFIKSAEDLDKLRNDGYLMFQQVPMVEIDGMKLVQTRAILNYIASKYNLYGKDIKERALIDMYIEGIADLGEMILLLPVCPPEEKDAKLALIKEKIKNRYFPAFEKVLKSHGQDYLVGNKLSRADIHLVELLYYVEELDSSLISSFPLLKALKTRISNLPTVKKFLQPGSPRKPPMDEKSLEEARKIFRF

[10] = target: T7, Nuclear receptor subfamily 1 group I member 3 (Homo sapiens, UniProt Q14994); assay: (§1) Constitutive androstane receptor indirect activator; format: ADME
T7 sequence (Q14994 whole entry): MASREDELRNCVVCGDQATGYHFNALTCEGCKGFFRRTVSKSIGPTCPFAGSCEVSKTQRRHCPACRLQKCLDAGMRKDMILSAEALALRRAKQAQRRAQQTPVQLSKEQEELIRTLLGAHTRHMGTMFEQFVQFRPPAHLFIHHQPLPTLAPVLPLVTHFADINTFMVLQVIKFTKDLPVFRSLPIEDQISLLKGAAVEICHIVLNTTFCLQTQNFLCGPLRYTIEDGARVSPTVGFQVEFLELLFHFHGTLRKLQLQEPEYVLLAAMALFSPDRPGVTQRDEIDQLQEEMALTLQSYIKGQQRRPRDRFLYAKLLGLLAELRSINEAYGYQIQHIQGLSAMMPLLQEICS

[11] = target: T5, Nuclear receptor subfamily 1 group I member 3; assay: as §1; format: ADME
[12] = target: T8, Cytochrome P450 2B6 (Homo sapiens, UniProt P20813); assay: Clinically relevant inducers of human liver microsomal P450 enzymes, isoform CYP2B6; format: ADME; settings: microsomes
T8 sequence (P20813 whole entry): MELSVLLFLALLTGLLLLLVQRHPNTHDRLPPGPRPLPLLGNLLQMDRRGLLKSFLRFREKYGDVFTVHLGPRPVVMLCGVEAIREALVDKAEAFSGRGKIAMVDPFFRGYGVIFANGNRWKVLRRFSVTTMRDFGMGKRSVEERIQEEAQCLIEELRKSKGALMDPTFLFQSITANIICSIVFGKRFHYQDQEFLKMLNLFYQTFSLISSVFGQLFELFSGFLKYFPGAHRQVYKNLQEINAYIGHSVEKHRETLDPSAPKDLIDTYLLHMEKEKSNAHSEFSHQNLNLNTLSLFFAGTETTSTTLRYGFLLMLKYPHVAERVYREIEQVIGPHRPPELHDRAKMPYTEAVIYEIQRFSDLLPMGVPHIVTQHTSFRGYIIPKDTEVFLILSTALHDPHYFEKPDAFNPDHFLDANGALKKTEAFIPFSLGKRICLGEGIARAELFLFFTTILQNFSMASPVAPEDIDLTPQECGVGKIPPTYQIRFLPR

[13] = target: Cytochrome P450 2C9 (Homo sapiens, UniProt P11712); assay: Clinically relevant substrates of human liver microsomal P450 enzymes, isoform CYP2C9; format: ADME; settings: microsomes
[14] = target: T9, Glutathione S-transferase kappa 1 (Homo sapiens, UniProt Q9Y2Q3); assay: Substrates for human mitochondrial glutathione transferase GSTK1; format: ADME
T9 sequence (Q9Y2Q3 whole entry): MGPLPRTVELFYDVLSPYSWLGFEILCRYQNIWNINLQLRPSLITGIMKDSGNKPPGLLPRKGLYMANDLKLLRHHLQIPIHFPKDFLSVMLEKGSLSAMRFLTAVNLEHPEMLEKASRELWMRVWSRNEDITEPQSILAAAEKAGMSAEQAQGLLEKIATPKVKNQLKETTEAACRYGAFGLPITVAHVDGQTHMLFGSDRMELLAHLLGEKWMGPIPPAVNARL

[15] = target: Glutathione S-transferase theta-2 (Homo sapiens, UniProt P0CG29); assay: Substrates for human cytosolic glutathione transferase GSTT2; format: ADME
[16] = target: Cytochrome P450 2E1 (Homo sapiens, UniProt P05181); assay: Clinically relevant substrates of human liver microsomal P450 enzymes, isoform CYP2E1; format: ADME; settings: microsomes
[17] = target: T7, Nuclear receptor subfamily 1 group I member 3; assay: Constitutive androstane receptor inverse agonist
[18] = target: T10, Glutathione S-transferase theta-1 (Homo sapiens, UniProt P30711); assay: Substrates for human cytosolic glutathione transferase GSTT1; format: ADME
T10 sequence (P30711 whole entry): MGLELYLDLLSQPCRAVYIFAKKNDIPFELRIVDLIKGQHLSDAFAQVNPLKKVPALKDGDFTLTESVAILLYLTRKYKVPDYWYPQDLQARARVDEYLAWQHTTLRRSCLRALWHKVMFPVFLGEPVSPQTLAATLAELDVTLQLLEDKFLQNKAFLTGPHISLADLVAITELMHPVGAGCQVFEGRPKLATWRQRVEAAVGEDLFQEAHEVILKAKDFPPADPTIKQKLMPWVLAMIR

[19] = target: Glutathione S-transferase Mu 3 (Homo sapiens, UniProt P21266); assay: Substrates for human cytosolic glutathione transferase GSTM3; format: ADME
[20] = target: Microsomal glutathione S-transferase 2 (Homo sapiens, UniProt Q99735); assay: Substrates for human microsomal glutathione transferase MGST2; format: ADME
Chain of Microsomal glutathione S-transferase 2 (Q99735 whole entry): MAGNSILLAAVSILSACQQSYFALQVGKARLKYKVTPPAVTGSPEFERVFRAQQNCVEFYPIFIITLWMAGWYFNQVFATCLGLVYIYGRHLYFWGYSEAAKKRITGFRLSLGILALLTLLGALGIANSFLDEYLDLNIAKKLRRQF

Chain of Cytochrome P450 2E1 (P05181 whole entry, canonical isoform): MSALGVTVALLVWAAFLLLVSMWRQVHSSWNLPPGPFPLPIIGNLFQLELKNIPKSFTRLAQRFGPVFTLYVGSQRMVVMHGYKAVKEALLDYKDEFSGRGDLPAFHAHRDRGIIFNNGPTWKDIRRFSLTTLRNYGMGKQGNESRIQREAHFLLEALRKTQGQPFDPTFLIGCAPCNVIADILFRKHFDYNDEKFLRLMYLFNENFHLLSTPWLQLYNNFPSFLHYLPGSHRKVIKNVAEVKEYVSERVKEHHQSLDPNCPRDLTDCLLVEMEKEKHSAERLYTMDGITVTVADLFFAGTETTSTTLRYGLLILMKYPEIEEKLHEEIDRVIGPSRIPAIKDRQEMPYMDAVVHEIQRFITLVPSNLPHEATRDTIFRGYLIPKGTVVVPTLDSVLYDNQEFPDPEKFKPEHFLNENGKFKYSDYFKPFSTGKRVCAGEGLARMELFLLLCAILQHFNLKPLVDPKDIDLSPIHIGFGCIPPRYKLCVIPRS
Chain of Glutathione S-transferase theta-2 (P0CG29 whole entry, canonical isoform): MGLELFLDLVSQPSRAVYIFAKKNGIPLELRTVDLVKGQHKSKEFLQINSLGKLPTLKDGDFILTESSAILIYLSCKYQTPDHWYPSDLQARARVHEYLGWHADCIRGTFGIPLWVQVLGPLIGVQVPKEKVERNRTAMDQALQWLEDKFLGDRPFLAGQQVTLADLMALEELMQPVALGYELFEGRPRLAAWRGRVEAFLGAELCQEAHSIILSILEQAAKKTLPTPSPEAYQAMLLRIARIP
Chain of Glutathione S-transferase A3 (Q16772 whole entry): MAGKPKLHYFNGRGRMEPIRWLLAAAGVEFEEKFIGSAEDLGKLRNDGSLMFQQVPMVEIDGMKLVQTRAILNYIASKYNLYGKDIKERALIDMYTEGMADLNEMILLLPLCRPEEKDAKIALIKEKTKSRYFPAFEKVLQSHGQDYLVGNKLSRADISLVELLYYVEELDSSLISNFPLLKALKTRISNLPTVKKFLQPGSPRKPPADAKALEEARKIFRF
Chain of Sulfotransferase 1A2 (P50226 whole entry): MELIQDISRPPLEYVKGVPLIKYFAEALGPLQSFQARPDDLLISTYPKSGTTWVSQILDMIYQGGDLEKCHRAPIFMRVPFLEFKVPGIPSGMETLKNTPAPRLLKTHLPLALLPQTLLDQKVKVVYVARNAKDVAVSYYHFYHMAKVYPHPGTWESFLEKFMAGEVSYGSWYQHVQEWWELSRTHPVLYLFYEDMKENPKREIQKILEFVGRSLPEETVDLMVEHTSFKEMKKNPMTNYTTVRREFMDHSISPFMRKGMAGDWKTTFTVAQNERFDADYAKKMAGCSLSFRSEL
Chain of Sulfotransferase 1A1 (P50225 whole entry): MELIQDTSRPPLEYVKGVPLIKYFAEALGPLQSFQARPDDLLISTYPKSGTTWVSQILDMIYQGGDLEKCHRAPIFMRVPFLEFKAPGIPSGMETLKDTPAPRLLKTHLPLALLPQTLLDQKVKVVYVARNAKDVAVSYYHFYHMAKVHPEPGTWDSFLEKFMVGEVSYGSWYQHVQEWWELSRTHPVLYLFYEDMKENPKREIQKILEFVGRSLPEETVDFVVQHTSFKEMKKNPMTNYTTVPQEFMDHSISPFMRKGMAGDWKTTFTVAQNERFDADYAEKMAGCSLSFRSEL
Chain of Cytochrome P450 2C9 (P11712 whole entry, canonical isoform): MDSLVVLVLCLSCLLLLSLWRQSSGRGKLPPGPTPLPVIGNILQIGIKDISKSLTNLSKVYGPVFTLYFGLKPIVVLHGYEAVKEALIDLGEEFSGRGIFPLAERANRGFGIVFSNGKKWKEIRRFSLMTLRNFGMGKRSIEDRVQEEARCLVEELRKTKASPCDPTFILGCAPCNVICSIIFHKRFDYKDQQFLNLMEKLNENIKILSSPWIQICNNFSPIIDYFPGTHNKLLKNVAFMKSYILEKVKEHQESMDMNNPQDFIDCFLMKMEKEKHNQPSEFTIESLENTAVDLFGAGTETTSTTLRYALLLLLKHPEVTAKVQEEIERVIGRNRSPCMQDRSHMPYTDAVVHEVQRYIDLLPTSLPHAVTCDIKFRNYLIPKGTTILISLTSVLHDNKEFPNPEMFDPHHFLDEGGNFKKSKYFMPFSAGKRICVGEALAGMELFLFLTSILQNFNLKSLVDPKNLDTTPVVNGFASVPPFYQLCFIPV
Chain of Glutathione S-transferase Mu 3 (P21266 whole entry): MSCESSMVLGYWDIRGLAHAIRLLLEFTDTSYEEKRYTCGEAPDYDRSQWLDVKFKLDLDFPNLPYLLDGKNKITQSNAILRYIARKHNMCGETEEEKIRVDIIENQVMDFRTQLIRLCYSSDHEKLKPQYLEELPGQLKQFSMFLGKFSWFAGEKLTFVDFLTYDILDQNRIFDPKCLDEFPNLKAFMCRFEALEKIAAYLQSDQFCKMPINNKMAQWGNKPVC

For `CC[C@@H]1C(=O)OC[C@@H]1Cc1cncn1C` [PILOCARPINE], the Activity [1] was “Inhibitor”.
`Oc1ccc2ccccc2c1` [BETANAPHTHOL] was tested, and the Activity [2] was “Substrate”, the Activity [3] was “Substrate” and the Activity [4] was “Substrate”.
With `O=[N+]([O-])c1ccc(Cl)c2nonc12` the Activity [5] was “Substrate”.
For `ClC(Cl)=C(Cl)C(Cl)=C(Cl)Cl` [HEXACHLOROBUTADIENE], the Activity [6] was “Substrate”.
With `Clc1ccccc1C(c1ccccc1)(c1ccccc1)n1ccnc1` [CLOTRIMAZOLE] the Activity [7] was “agonist”.
In the case of `C[C@]12CCC(=O)CC1=CC[C@@H]1[C@@H]2CC[C@]2(C)C(=O)CC[C@@H]12`, the Activity [8] was “Substrate” and the Activity [9] was “Substrate”.
`O=C1NC(=O)C(c2ccccc2)(c2ccccc2)N1` [PHENYTOIN] was tested, and the Activity [10] was “indirect activator”, the Activity [11] was “indirect activator” and the Activity [12] was “Inducer”. The Activity [13] was “Substrate”.
For `N[C@@H]1C[C@H]1c1ccccc1.N[C@H]1C[C@@H]1c1ccccc1` [TRANYLCYPROMINE], the Activity [1] was “Inhibitor”.
With `CC(C)(OO)c1ccccc1` [CUMENE HYDROPEROXIDE] the Activity [6] was “Substrate”, the Activity [14] was “Substrate” and the Activity [5] was “Substrate”. For the same compound, the Activity [15] was “Substrate”.
With `NCCc1c[nH]c2ccccc12` [TRYPTAMINE] the Activity [1] was “Inhibitor”.
`OC1c2c(cc3ccc4cccc5c6ccccc6c2c3c45)C2OC2C1O` (configuration not stated) [DIBENZO[A,L]PYRENE DIOL EPOXIDE] was tested, and the Activity [8] was “Substrate”, the Activity [5] was “Substrate” and the Activity [9] was “Substrate”.
In the case of `CCCCCCCCCCCC(=O)O` [DODECANOATE], the Activity [16] was “Substrate”.
For `Cc1cccc(CN2CCN(C(c3ccccc3)c3ccc(Cl)cc3)CC2)c1` (configuration not stated) [MECLIZINE], the Activity [17] was “inverse agonist” and the Activity [7] was “agonist”.
`O=NN(CCCl)C(=O)NCCCl` [CARMUSTINE] was tested, and the Activity [18] was “Substrate” and the Activity [19] was “Substrate”.
For `Nc1ccccc1` [ANILINE], the Activity [16] was “Substrate”.
In the case of `O=S(=O)(O)Cc1ccc2ccccc2c1` [MENAPHTHYL SULFONATE], the Activity [15] was “Substrate”.
`CN(C)CCCN1c2ccccc2Sc2ccc(Cl)cc21` [CHLORPROMAZINE] was tested, and the Activity [17] was “inverse agonist” and the Activity [7] was “agonist”.
For `CCCCC/C=C\C/C=C\C/C=C\C=C\[C@H](CCCC(=O)O)OO`, the Activity [20] was “Substrate”.

— ChEMBL document CHEMBL1743201, “Casarett and Doull's Toxicology The Basic Science of Poisons, 7th edition” (2008)
